One test relates to L1210 cells. The test can be described thus: L1210 in vitro cell growth inhibition. In kind it is cell-based. As to conditions: Mus musculus, 72 h; L1210 murine leukemia cells, three days incubation, 50% inhibition of growth; read-out: L1210 in vitro ID50. As for the experimental part: Another test protocol uses L1210 cells, a murine leukemia cell line, grown in RPMI 1640 supplemented with 5% fetal bovine serum and gentamicin ([…]). Drug dilutions are prepared in the appropriate solvent and 20 µl of each dilution are added to 24-well Linbro tissue culture plates, followed by the addition of 2.0 ml of cell suspension containing 3 x 10^4 cells per ml. Solvent and medium controls are included in each test. After incubation at 37°C for three days in 5% CO2, the contents of each well are removed and the cells counted in a ZBI Counter counter. Percent growth are calculated relative to the controls and the levels of drug activity are expressed as ID50 in moles per liter.

In the next test the test system is HCT-8 cells. The test can be described thus: in vitro proliferating human colon adenocarcinoma (HCA) cell screen. The test is classed as cell-based. As to conditions: 60 to 65 hours with compound, 50% inhibition of growth, read-out: HCA-4 in vitro ID50. Here is the method:
One test protocol is the in vitro proliferating human colon adenocarcinoma (HCA) cell screen. In this test, HCT-8 cells (HCA cell line received from Yale University) are trypsinized using trypsin-EDTA. A single cell suspension is achieved by passing the cells through a 26 gauge needle with a 20 cc syringe. A cell suspension is prepared using RPMI 1640 + 10% FCS + 50 µg/ml gentamicin sulfate with a cell concentration of approximately 30,000 cells/ml. The cell suspension is dispensed in Linbro 24-well plates; 1 ml/well. The plates are incubated for approximately 48 hours at 37°C in a 5% CO2 atmosphere. At this time test compounds are added in the appropriate concentration. Five µl of the 200 µg/ml stock solution is added to each well in a primary test. Ten ul of the appropriate dilution is added to each well for the titration test. The plates are reincubated an additional 60 to 65 hours at 37°C in a 5% C02 atmosphere. The cells are lysed using a mix of cationic surfactant, glacial acetic acid, and sodium chloride. Two ml of the lysed cell suspension from each well is added to 8 ml of diluent. The number of nuclei is determined using a Coulter counter (ZBI model), and a percent growth for each drug concentration is calculated. From this, an IDso (molar concentration of compound that results in 50% inhibition of growth) is determined.

The test system of test [1] is lymphocytic leukemia P388. As to the kind of experiment: in vivo lymphocytic leukemia P388 test. The conditions noted are these: Mus musculus, P388, ip, 120 h, mice, survival time treated/control, read-out: P388 in vivo T/C×100; for response vs control in vivo at 12.5 mg/kg: Dose 12.5 mg/kg intraperitoneally once daily for five days; for response vs control in vivo at 25 mg/kg: Dose 25 mg/kg intraperitoneally once daily for five days; for response vs control in vivo at 50 mg/kg: Dose 50 mg/kg intraperitoneally once daily for five days; for response vs control in vivo at 100 mg/kg: Dose 100 mg/kg intraperitoneally once daily for five days; for response vs control in vivo at 6.25 mg/kg: Dose 6.25 mg/kg intraperitoneally once daily for five days. As for the experimental part: Another test protocol is the in vivo lymphocytic leukemia P388 test. The animals used are either male or female CD2F, mice. There are six or seven animals per test group. The tumor transplant is by intraperitoneal injection of dilute ascitic fluid containing cells of lymphocytic leukemia P388. The test compounds are administered intraperitoneally once daily for five consecutive days at various doses following tumor inoculation. The animals are weighed and survivors are recorded on a regular basis for 30 days. A compound is designated "toxic" if, at a given dose, all animals died prior to four days after the first injection of drug. A ratio of survival time for treated (T)/control (C) animals is calculated. A criterion for efficacy is a ratio T/C times 100 greater than or equal to 125. See Cancer Chemotherapy Reports, Part 3, 3, 1 (1972) for a comprehensive discussion of the protocol.

The next test relates to Bacillus subtilis 04555. The test can be described thus: in vitro antibacterial/antifungal (ABF) agar-disk diffusion assay. In kind it is cell-based. The conditions noted are these: read-out: ABF Zone Diameter (Conc. in mg/ml) B. Sub-tilis. As for the experimental part: (§1) Still another test protocol is the in vitro antibacterial/antifungal (ABF) test. Compounds are tested for antimicrobial activity in an agar-disk diffusion assay, a standard microbiological technique for testing antibiotics. After incubation of each culture with a test compound, a zone of inhibition is determined. The zone diameter (mm) of active compounds ranges from a minimum of 13.5 mm to as high as 60 mm, with a greater diameter reflecting higher activity. For convenience, values are reported for two gram-negative bacteria (Aerobacter aerogenes 0126 and Escherichia coli 04863), two gram-positive bacteria (Bacillus subtilis 04555 and Streptococcus faecalis 05045 utilizing AM-09 medium), and one mycelial fungus (Penicillium avellaneum M2988).
(A growth-free zone around the sample is the usual read-out of agar diffusion tests.)

The test system of test [2] is Penicillium avellaneum M2988. The test is described as above. In kind it is cell-based. As to conditions: Hamigera avellanea, read-out: ABF Zone Diameter (Conc. in mg/ml) P. Avell-aneum. As for the experimental part: as §1
The subject of test [3] is Streptococcus faecalis 05045. The description is as above. The test is classed as cell-based. As to conditions: Enterococcus faecalis, AM-09 medium, read-out: ABF Zone Diameter (Conc. in mg/ml) S. Fae-calis. Here is the method: as §1
Test [4] concerns Corynebacterium Sp. ATCC 21698. As to the kind of experiment: in vitro antibacterial (ABMF) microdilution susceptibility test. The test is classed as cell-based. The conditions noted are these: ATCC21698, Mueller-Hinton broth microdilution, 37°C, 16-24 hours, read-out: ABMF Minimal Inhibitory Concentration (µ/ml) Coryn. sp. From the text:
(§2) Still another test protocol is the in vitro antibacterial (ABMF) test which is a recognized standard microdilution susceptibility procedure in Mueller-Hinton broth against Gram-positive and Gram-negative bacterial test organisms. The procedure is a modification of a state-of-the-art procedure reported in Manual of Clinical Microbiology, Lennette, E. H., ed., by Barry, A. L. and C. Thornsberry at pages 463-474 and by Gavan, T. L. and A. L. Barry at pages 459―462, American Society for Microbiology, Washington, 1980.
(§3) In the test, a given bacterial culture is used to inoculate individual test wells of microdilution trays containing growth medium and test compound, the latter in a microdilution series: 1000, 333.111, 37,12, 4, 1.4, and 0.46 micrograms per milliliter. […] For convenience, values are reported for Escherichia coli, Corynebacterium Sp. ATCC 21698, Salmonella typhimurium, Streptococcus pneumoniae, and Rhodotorula aurantiaca.
For orientation: Dilution methods test growth across graded concentrations, often in twofold steps.

The next test concerns Escherichia coli. The test is described as above. In kind it is cell-based. The conditions noted are these: Mueller-Hinton broth microdilution, 37°C, 16-24 hours, read-out: ABMF Minimal Inhibitory Concentration (µ/ml) E. coli.
Source text: as §2, §3

A further test relates to Rhodotorula aurantiaca. Described as above. In kind it is cell-based. The conditions noted are these: Buckleyzyma aurantiaca, read-out: ABMF Minimal Inhibitory Concentration (µ/ml) R. aurant.
Source text: as §2, §3

The subject of the next test is Salmonella typhimurium. The test is described as above. As to conditions: Salmonella enterica, Mueller-Hinton broth microdilution, 37°C, 16-24 hours, read-out: ABMF Minimal Inhibitory Concentration (µ/ml) S. typh. In kind it is cell-based.
Source text: as §2, §3

For another test, the system named is Streptococcus pneumoniae. The description is as above. In kind it is cell-based. As to conditions: Mueller-Hinton broth microdilution, 37°C, 16-24 hours, read-out: ABMF Minimal Inhibitory Concentration (µ/ml) S. pneum.
Source text: as §2, §3

The mark [5] stands for this setting: Mueller-Hinton broth microdilution, 37°C, 16-24 hours.

SMILES strings stand for the structures. Values after ≈ are worked out from the molar mass of the structure shown. Counter-ions that a name gives are not always drawn. Like-named read-outs stand apart in the source and are kept apart here. A value given as a limit tells only on which side of the number the result lay.

In the case of `CCN(CC)CCn1nc2c3c(c(NCCN)ccc31)Oc1ccccc1-2` [Example 4, N-[2-[2-(Diethylamino)ethyl]-2H-[1]benzopyrano[4,3,2-cd]indazol-5-yl]ethanediamine, trihydrobromide, dihydrate], the IC50 worked out at 80 nM in the test with L1210 cells and 160 nM with HCT-8 cells. Also, the response vs control in vivo at 12.5 mg/kg in test [1] is 174%. Further, in test [1], the response vs control in vivo at 25 mg/kg came out at 216%. In addition, the zone of inhibition at 500 µg/mL in the test with Bacillus subtilis 04555 (Conc. .5 mg/ml) was determined as 14 mm. Also, the zone of inhibition at 3000 µg/mL in [2] (Conc. 3 mg/ml) stood at 0 mm; in [3] (Conc. 3 mg/ml), 16 mm.

For `CCN(CC)CCn1nc2c3c(c(N)ccc31)Oc1ccccc1-2` [Example 3, 5-Amino-N,N-diethyl-2H-[1]benzopyrano[4,3,2-cd]indazol-2-ethanamine], the IC50 with L1210 cells came out at 1300 nM; in the test on HCT-8 cells, 2400 nM.

`O=[N+]([O-])c1ccc2c3c(nn2CCNCCO)-c2ccccc2Oc13` [Example 2, 2-[[2-(5-Nitro-2H-[1]benzopyrano[4,3,2-cd]-indazol-2-yl)ethyl]amino]ethanol, monohydrochloride]: the IC50 in the test on L1210 cells came to 400 nM; with HCT-8 cells it was 500 nM. Further, the response vs control in vivo at 50 mg/kg in test [1] worked out at 141%. For the same compound, the zone of inhibition at 100 µg/mL in the test on Bacillus subtilis 04555 (Conc. .1 mg/ml) was determined as 17 mm; in test [2] (Conc. .1 mg/ml), 19 mm. In addition, in test [3] (Conc. .5 mg/ml), the zone of inhibition at 500 µg/mL turned out to be 17 mm.

For the compound `CCN(CC)CCn1nc2c3c(c(NC(=O)CNCCO)ccc31)Oc1ccc(O)cc1-2.Cl` [Example 13, N-[2-[2-(Diethylamino)ethyl]-9-hydroxy-2H-[1]benzopyrano[4,3,2-cd]indazole-5-yl]-2-[(2-hydroxyethyl)-amino]acetamide, hydrochloride], in the test with L1210 cells, the IC50 stood at 5.7 nM. In addition, the response vs control in vivo at 25 mg/kg in test [1] amounted to 198%. Also, the response vs control in vivo at 50 mg/kg in test [1] was 227%. Further, the response vs control in vivo at 100 mg/kg in [1] came to 272%. For the same compound, the MIC was 333 µg/mL in test [4]; 111 µg/mL in the test with Escherichia coli; > 1000 µg/mL in the test with Rhodotorula aurantiaca (setting [5]); > 1000 µg/mL with Salmonella typhimurium; 333 µg/mL with Streptococcus pneumoniae.

With `CCN(CC)CCn1nc2c3c(c([N+](=O)[O-])ccc31)Oc1ccc(OC)cc1-2` [Example 5, N,N-Diethyl-9-methoxy-5-nitro-2H-[1]benzopyrano-[4,3,2-cd]indazole-2-ethanamine, methanesulfonate (1: 1)], the IC50 in the test with L1210 cells worked out at 920 nM. Further, the response vs control in vivo at 25 mg/kg in [1] is 126%. Besides, the response vs control in vivo at 50 mg/kg in test [1] was found to be 148%. Further, the response vs control in vivo at 100 mg/kg in [1] turned out to be 192%. Further, the MIC is < 0.46 µg/mL in [4]; < 0.46 µg/mL with Escherichia coli; 111 µg/mL with Rhodotorula aurantiaca; 111 µg/mL in the test with Salmonella typhimurium; < 0.46 µg/mL in the test on Streptococcus pneumoniae.

With `CN(C)CCCn1nc2c3c(c([N+](=O)[O-])ccc31)Oc1ccc(O)cc1-2.CS(=O)(=O)O` [Example 11, 9-Hydroxy-N,N-dimethyl-5-nitro-2H-[1]benzopyrano[4,3,2-cd]indazole-2-propanamine, methanesulfonate (1:1)], in the test with L1210 cells, the IC50 came to 15 nM. Besides, the response vs control in vivo at 6.25 mg/kg in test [1] was 150%. Besides, in [1], the response vs control in vivo at 12.5 mg/kg is 200%. Also, in [1], the response vs control in vivo at 25 mg/kg came out at 226%. Also, the MIC in [4] was < 0.46 µg/mL; in the test on Escherichia coli it was < 0.46 µg/mL; in the test with Rhodotorula aurantiaca (setting [5]) it was 1000 µg/mL; with Salmonella typhimurium it was 12.3 µg/mL; with Streptococcus pneumoniae, < 0.46 µg/mL.

With `CCN(CC)CCn1nc2c3c(c(NCCNCCO)ccc31)Oc1ccc(O)cc1-2` [Example 14], the IC50 with L1210 cells is 48 nM. The response vs control in vivo at 6.25 mg/kg in test [1] was 236%. In addition, in [1], the response vs control in vivo at 12.5 mg/kg turned out to be 272%. Also, the MIC is 33 µg/mL (≈ 77.5 µM) in [4]; 11 µg/mL (≈ 25.8 µM) with Escherichia coli; > 33 µg/mL with Rhodotorula aurantiaca (setting [5]); > 33 µg/mL in the test with Salmonella typhimurium; 11 µg/mL (≈ 25.8 µM) in the test with Streptococcus pneumoniae.

In the case of `O=[N+]([O-])c1ccc2c3c(nn2CCNCCO)-c2cc(O)ccc2Oc13` [Example 15, 2-[2-[(2-Hydroxyethyl)amino]ethyl]-5-nitro-2H-[1]benzopyrano[4,3,2-cd]indazol-9-01, hydrochloride], the IC50 in the test on L1210 cells is 15 nM. Moreover, the response vs control in vivo at 12.5 mg/kg in test [1] was found to be 190%. Further, the response vs control in vivo at 25 mg/kg in test [1] was 218%. In addition, the response vs control in vivo at 50 mg/kg in test [1] came to 230%. Further, the MIC in test [4] is 1.4 µg/mL; in the test with Escherichia coli, > 0.46 µg/mL; in the test on Rhodotorula aurantiaca (setting [5]), 1000 µg/mL; in the test with Salmonella typhimurium, 12.3 µg/mL; in the test on Streptococcus pneumoniae, 1.4 µg/mL.

The values above are taken from EP0172632B1, “Benzopyrano[4,3,2-cd]indazole compounds, processes for their production and pharmaceutical compositions comprising the compounds” (WARNER-LAMBERT COMPANY, priority 1984, dated 1986).
